Experimental data from patent US6500817B1, “Thiazolyl urea derivatives and their utilization as antiviral agents” (Bayer Aktiengesellschaft, priority 1999, dated 2002).

Experiments:
[1] = test system: HSV; assay: in vivo effect: survival of intranasally HSV-infected mice; set-up: species or system strain BALB/cABom; details: Mus musculus; female BALB/cABom mice, intranasal infection 5×10^4 pfu; treatment from 6 hours after infection, 3 times a day for 5 days; from graphs of survival; read-out: ED50 (50% of the animals survive at this dose)
Procedure: 6-week old female mice, strain BALB/cABom, were purchased from a commerical breeder (Bomholtgard Breeding and Research Centre Ltd.).
The animals were anaesthetized with diethyl ether (Merck) in a sealed glass vessel. 50 μl of a dilution of the virus stock (infectious dose 5×10^4 pfu) were introduced into the nose of the anaesthetized animals with an Eppendorf pipette. This infectious dose leads to death of 90-100% of the animals after an average of between 5 and 8 days due to a generalized infection with prominent respiratory and central nervous symptoms.
6 hours after the infection, the animals were treated with doses of 0.1-100 mg/kg of body weight 3 times a day at 7.00 h, 14.00 h and 19 h over a period of 5 days. The substances were dissolved in DMSO and resuspended in Tylose/PBS (Hoechst) (final concentration 1.5% DMSO, 0.5% Tylose in PBS).
After the last administration, the animals were observed further and the times of death were recorded.

[2] = test system: HSV-2 G; assay: anti-HSV screening test (cytopathogenic effect, fluorescein diacetate fluorescence readout) in Vero cells; assay type: cell-based; details: Human alphaherpesvirus 2, Vero, read-out: IC50 HSV-2 G/Vero
Procedure: (§1) HSV (HSV-1 Walki, HSV-1F or HSV-2G) was replicated on Vero cells (ATCC CCL-81) under the following conditions: the cells were grown in M199 medium (5% fetal calf serum, 2 mM glutamine, 100 IU/ml penicillin, 100 μg/ml streptomycin) in cell culture bottles at 37° C. and 5% CO2. The cells were split 1:4 on each of two occasions each week. For the infection, the medium was removed, and the cells were washed with Hank's solution, detached with 0.05% trypsin, 0.02% EDTA (Seromed L2143) and incubated at a density of 4×10^5 cells per ml under the conditions mentioned above for 24 hours. The medium was then removed, and the virus solution was added at an m.o.i. of <0.05 in a volume of 2 ml per 175 cm^2 of surface area. After incubation under the conditions mentioned for one hour, the medium was made up to a volume of 50 ml per 175 cm^2 bottle. […] The virus was released by freezing (−80° C.) and thawing (37° C.) twice. The cell debris was removed by centrifugation (300 g, 10 min, 4° C.) and the supernatant was frozen in aliquots at −80° C.
(§2) The anti-HSV effect was determined in a screening test system in 96-well microtitre plates with the assistance of various cell lines of neuronal, lymphoid and epithelial origin, such as, for example, Vero (African green monkey kidney cell line), MEF (murine embryonic fibroblasts), HELF (human embryonic fibroblasts), NT2 (human neuronal cell line) or Jurkat (human lymphoid T-cell line).
(§3) The substances dissolved (50 mM) in DMSO (dimethyl sulphoxide) are investigated on microtitre plates (for example 96-well MTP) in final concentrations of 250-0.5 μM (micromolar) in duplicate determinations (4 substances/plate). For potent substances, the dilutions are continued over several plates as far as 0.5 pM (picomolar). Toxic and cytostatic effects of the substance are also recorded. After the appropriate dilutions of the substance (1:2) on the microtitre plate, a suspension of cells (1×10^4 cells per well) such as, for example, Vero cells in M199 (medium 199) with 5% fetal calf serum, 2 mM glutamine and optionally 100 IU/ml penicillin and 100 μg/ml streptomycin or MEF cells in EMEM (Eagle's minimum essential medium) with 10% fetal calf serum, 2 mM glutamine and optionally 100 IU/ml penicillin and 100 μg/ml streptomycin, or HELF cells in EMEM with 10% fetal calf serum, 2 mM glutamine and optionally 100 IU/ml penicillin and 100 μg/ml streptomycin, or NT2 and Jurkat cells in DMEM ([…] glucose plus pyridoxine) with 10% fetal calf serum, 2 mM glutamine, 1 mM sodium pyruvate, nonessential amino acids and optionally 100 IU/ml penicillin and 100 μg/ml streptomycin is put in each well, and the cells in the relevant wells are infected with an appropriate amount of virus (HSV-1 F or HSV-2 G with an m.o.i (multiplicity of infection) of 0.0025 for HELF, Vero and MEF cells and with an m.o.i of 0.1 for NT2 and Jurkat cells). The plates are then incubated at 37° C. in a CO2 incubator (5% CO2) for several days. […] The plates are initially evaluated optically using a microscope and then analysed with a fluorescent dye. For this purpose, the cell culture supernatant is aspirated out of all the wells of the MTP and charged with 200 μl of PBS washing solution.

[3] = test system: HSV-1 F; assay: as above; assay type: cell-based; details: Human alphaherpesvirus 1, Vero, read-out: IC50 HSV-1 F/Vero
Procedure: as §1, §2, §3

In the case of `CNS(=O)(=O)c1sc(N(C)C(=O)Nc2ccc(N3CCOCC3)cc2)nc1C` [Example 43], the ED50 [1] is reported as 30 to 40 mg/kg, the IC50 [2] is reported as 1500 nM and the IC50 [3] is reported as 500 nM.
